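Compound exposure: 48 hours, 5 concentrations, 96-well plates. Abbreviation: GI50, concentration required for 50% inhibition of growth. TGI: concentration producing complete growth inhibition.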
Legend:
Experiment in all cases: NCI tumour cell line growth inhibition, 48 h
786-0 renal = test system: 786-0 renal
A549 NSCLC = test system: A549 NSCLC
ACHN renal = test system: ACHN renal
BT-549 breast = test system: BT-549 breast
CAKI-1 renal = test system: CAKI-1 renal
COLO 205 colon = test system: COLO 205 colon
DU-145 prostate = test system: DU-145 prostate
EKVX NSCLC = test system: EKVX NSCLC
HCC-2998 colon = test system: HCC-2998 colon
HCT-116 colon = test system: HCT-116 colon
HCT-15 colon = test system: HCT-15 colon
HOP-62 NSCLC = test system: HOP-62 NSCLC
IGROV1 ovarian = test system: IGROV1 ovarian
KM12 colon = test system: KM12 colon
LOX IMVI melanoma = test system: LOX IMVI melanoma
M14 melanoma = test system: M14 melanoma
MALME-3M melanoma = test system: MALME-3M melanoma
MCF7 breast = test system: MCF7 breast
MDA-MB-231 breast = test system: MDA-MB-231 breast
MDA-N = test system: MDA-N
NCI-H226 lung = test system: NCI-H226 lung
NCI-H23 lung = test system: NCI-H23 lung
NCI-H460 lung = test system: NCI-H460 lung
NCI-H522 lung = test system: NCI-H522 lung
NCI/ADR-RES ovarian = test system: NCI/ADR-RES ovarian
OVCAR-3 ovarian = test system: OVCAR-3 ovarian
OVCAR-5 ovarian = test system: OVCAR-5 ovarian
PC-3 prostate = test system: PC-3 prostate
RXF 393 renal = test system: RXF 393 renal
SF-268 CNS = test system: SF-268 CNS
SF-295 CNS = test system: SF-295 CNS
SF-539 CNS = test system: SF-539 CNS
SK-MEL-5 melanoma = test system: SK-MEL-5 melanoma
SK-OV-3 ovarian = test system: SK-OV-3 ovarian
SNB-19 CNS = test system: SNB-19 CNS
TK-10 renal = test system: TK-10 renal
UACC-257 melanoma = test system: UACC-257 melanoma
UACC-62 melanoma = test system: UACC-62 melanoma
UO-31 renal = test system: UO-31 renal
A498 renal = test system: A498 renal
CCRF-CEM leukemia = test system: CCRF-CEM leukemia
HL-60(TB) leukemia = test system: HL-60(TB) leukemia
HOP-92 NSCLC = test system: HOP-92 NSCLC
HS 578T breast = test system: HS 578T breast
HT29 colon = test system: HT29 colon
K-562 leukemia = test system: K-562 leukemia
MDA-MB-435 = test system: MDA-MB-435
MOLT-4 leukemia = test system: MOLT-4 leukemia
OVCAR-4 ovarian = test system: OVCAR-4 ovarian
OVCAR-8 ovarian = test system: OVCAR-8 ovarian
RPMI-8226 leukemia = test system: RPMI-8226 leukemia
SK-MEL-2 melanoma = test system: SK-MEL-2 melanoma
SK-MEL-28 melanoma = test system: SK-MEL-28 melanoma
SN12C renal = test system: SN12C renal
SNB-75 CNS = test system: SNB-75 CNS
SR leukemia = test system: SR leukemia
SW-620 colon = test system: SW-620 colon
T-47D breast = test system: T-47D breast
U251 CNS = test system: U251 CNS

Cc1cc(C)nc(NCCC(O)(P(=O)(O)O)P(=O)(O)O)n1
TGI (786-0 renal): > 100 µM
TGI (A549 NSCLC): > 100 µM
TGI (ACHN renal): > 100 µM
TGI (BT-549 breast): > 100 µM
TGI (CAKI-1 renal): > 100 µM
TGI (COLO 205 colon): > 100 µM
TGI (DU-145 prostate): > 100 µM
TGI (EKVX NSCLC): > 100 µM
TGI (HCC-2998 colon): > 100 µM
TGI (HCT-116 colon): > 100 µM
TGI (HCT-15 colon): > 100 µM
TGI (HOP-62 NSCLC): > 100 µM
TGI (IGROV1 ovarian): > 100 µM
TGI (KM12 colon): > 100 µM
TGI (LOX IMVI melanoma): > 100 µM
TGI (M14 melanoma): > 100 µM
TGI (MALME-3M melanoma): > 100 µM
TGI (MCF7 breast): > 100 µM
TGI (MDA-MB-231 breast): > 100 µM
TGI (MDA-N): > 100 µM
TGI (NCI-H226 lung): > 100 µM
TGI (NCI-H23 lung): > 100 µM
TGI (NCI-H460 lung): > 100 µM
TGI (NCI-H522 lung): > 100 µM
TGI (NCI/ADR-RES ovarian): > 100 µM
TGI (OVCAR-3 ovarian): > 100 µM
TGI (OVCAR-5 ovarian): > 100 µM
TGI (PC-3 prostate): > 100 µM
TGI (RXF 393 renal): > 100 µM
TGI (SF-268 CNS): > 100 µM
TGI (SF-295 CNS): > 100 µM
TGI (SF-539 CNS): > 100 µM
TGI (SK-MEL-5 melanoma): > 100 µM
TGI (SK-OV-3 ovarian): > 100 µM
TGI (SNB-19 CNS): > 100 µM
TGI (TK-10 renal): > 100 µM
TGI (UACC-257 melanoma): > 100 µM
TGI (UACC-62 melanoma): > 100 µM
TGI (UO-31 renal): > 100000 nM

CCCOc1ccc(/C=N/Nc2cc(C)nc3ccc(Cl)cc23)cc1
GI50 (786-0 renal): 1860 nM
TGI (786-0 renal): 3.42 µM
GI50 (A498 renal): 1720 nM
TGI (A498 renal): 3.16 µM
GI50 (A549 NSCLC): 1720 nM
TGI (A549 NSCLC): 3.35 µM
GI50 (ACHN renal): 1740 nM
TGI (ACHN renal): 3.12 µM
GI50 (BT-549 breast): 2170 nM
TGI (BT-549 breast): 5.46 µM
GI50 (CAKI-1 renal): 1780 nM
TGI (CAKI-1 renal): 3.2 µM
GI50 (CCRF-CEM leukemia): 1780 nM
TGI (CCRF-CEM leukemia): 4.08 µM
GI50 (COLO 205 colon): 1820 nM
TGI (COLO 205 colon): 3.4 µM
GI50 (DU-145 prostate): 1900 nM
TGI (DU-145 prostate): 3.42 µM
GI50 (EKVX NSCLC): 1640 nM
TGI (EKVX NSCLC): 3.05 µM
GI50 (HCC-2998 colon): 2030 nM
TGI (HCC-2998 colon): 3.53 µM
GI50 (HCT-116 colon): 1700 nM
TGI (HCT-116 colon): 3.32 µM
GI50 (HCT-15 colon): 1520 nM
TGI (HCT-15 colon): 2.94 µM
GI50 (HL-60(TB) leukemia): 1830 nM
TGI (HL-60(TB) leukemia): 3.78 µM
GI50 (HOP-62 NSCLC): 1580 nM
TGI (HOP-62 NSCLC): 2.98 µM
GI50 (HOP-92 NSCLC): 1510 nM
TGI (HOP-92 NSCLC): 3.11 µM
GI50 (HS 578T breast): 2150 nM
TGI (HS 578T breast): 4.63 µM
GI50 (HT29 colon): 1800 nM
TGI (HT29 colon): 3.49 µM
GI50 (IGROV1 ovarian): 1920 nM
TGI (IGROV1 ovarian): 3.63 µM
GI50 (K-562 leukemia): 1480 nM
TGI (K-562 leukemia): 3.13 µM
GI50 (KM12 colon): 1800 nM
TGI (KM12 colon): 3.35 µM
GI50 (LOX IMVI melanoma): 1700 nM
TGI (LOX IMVI melanoma): 3.1 µM
GI50 (M14 melanoma): 1690 nM
TGI (M14 melanoma): 3.23 µM
GI50 (MALME-3M melanoma): 1790 nM
TGI (MALME-3M melanoma): 3.26 µM
GI50 (MCF7 breast): 1670 nM
TGI (MCF7 breast): 3.4 µM
GI50 (MDA-MB-231 breast): 1850 nM
TGI (MDA-MB-231 breast): 3.49 µM
GI50 (MDA-MB-435): 1800 nM
TGI (MDA-MB-435): 3.24 µM
GI50 (MOLT-4 leukemia): 1810 nM
TGI (MOLT-4 leukemia): 3.77 µM
GI50 (NCI-H226 lung): 1690 nM
TGI (NCI-H226 lung): 3.35 µM
GI50 (NCI-H23 lung): 1810 nM
TGI (NCI-H23 lung): 3.52 µM
GI50 (NCI-H460 lung): 2040 nM
TGI (NCI-H460 lung): 4.03 µM
GI50 (NCI-H522 lung): 1750 nM
TGI (NCI-H522 lung): 3.42 µM
GI50 (NCI/ADR-RES ovarian): 1900 nM
TGI (NCI/ADR-RES ovarian): 3.81 µM
GI50 (OVCAR-3 ovarian): 2130 nM
TGI (OVCAR-3 ovarian): 3.7 µM
GI50 (OVCAR-4 ovarian): 1710 nM
TGI (OVCAR-4 ovarian): 3.2 µM
GI50 (OVCAR-5 ovarian): 1870 nM
TGI (OVCAR-5 ovarian): 3.28 µM
GI50 (OVCAR-8 ovarian): 2310 nM
TGI (OVCAR-8 ovarian): 4.53 µM
GI50 (PC-3 prostate): 1530 nM
TGI (PC-3 prostate): 3.13 µM
GI50 (RPMI-8226 leukemia): 1810 nM
TGI (RPMI-8226 leukemia): 3.99 µM
GI50 (RXF 393 renal): 1550 nM
TGI (RXF 393 renal): 2.94 µM
GI50 (SF-268 CNS): 2240 nM
TGI (SF-268 CNS): 4.19 µM
GI50 (SF-295 CNS): 1720 nM
TGI (SF-295 CNS): 3.2 µM
GI50 (SF-539 CNS): 1790 nM
TGI (SF-539 CNS): 3.2 µM
GI50 (SK-MEL-2 melanoma): 1730 nM
TGI (SK-MEL-2 melanoma): 3.22 µM
GI50 (SK-MEL-28 melanoma): 1730 nM
TGI (SK-MEL-28 melanoma): 3.15 µM
GI50 (SK-MEL-5 melanoma): 1540 nM
TGI (SK-MEL-5 melanoma): 2.88 µM
GI50 (SK-OV-3 ovarian): 1780 nM
TGI (SK-OV-3 ovarian): 3.18 µM
GI50 (SN12C renal): 1820 nM
TGI (SN12C renal): 3.31 µM
GI50 (SNB-19 CNS): 1950 nM
TGI (SNB-19 CNS): 3.54 µM
GI50 (SNB-75 CNS): 1940 nM
TGI (SNB-75 CNS): 3.54 µM
GI50 (SR leukemia): 1170 nM
TGI (SR leukemia): 3.75 µM
GI50 (SW-620 colon): 1960 nM
TGI (SW-620 colon): 3.79 µM
GI50 (T-47D breast): 1710 nM
TGI (T-47D breast): 3.62 µM
GI50 (TK-10 renal): 2040 nM
TGI (TK-10 renal): 3.47 µM
GI50 (U251 CNS): 2050 nM
TGI (U251 CNS): 3.55 µM
GI50 (UACC-257 melanoma): 1790 nM
TGI (UACC-257 melanoma): 3.32 µM
GI50 (UACC-62 melanoma): 1760 nM
TGI (UACC-62 melanoma): 3.24 µM
GI50 (UO-31 renal): 1560 nM
TGI (UO-31 renal): 2910 nM

CC(C)(Oc1ccc2c(=O)cc(-c3ccccc3)oc2c1)C(=O)N1CCN(c2ccccc2)CC1
TGI (786-0 renal): > 10 µM
TGI (A549 NSCLC): > 10 µM
TGI (CAKI-1 renal): > 10 µM
TGI (CCRF-CEM leukemia): > 10 µM
TGI (DU-145 prostate): > 10 µM
TGI (EKVX NSCLC): > 10 µM
TGI (HCC-2998 colon): > 10 µM
TGI (HCT-15 colon): > 10 µM
TGI (HL-60(TB) leukemia): 4.38 µM
TGI (HOP-62 NSCLC): > 10 µM
TGI (HT29 colon): > 10 µM
TGI (IGROV1 ovarian): > 10 µM
TGI (K-562 leukemia): > 10 µM
TGI (KM12 colon): > 10 µM
TGI (LOX IMVI melanoma): > 10 µM
TGI (M14 melanoma): > 10 µM
TGI (MALME-3M melanoma): > 10 µM
TGI (MCF7 breast): > 10 µM
TGI (MDA-MB-231 breast): > 10 µM
TGI (MDA-N): > 10 µM
TGI (MOLT-4 leukemia): > 10 µM
TGI (NCI-H23 lung): > 10 µM
TGI (OVCAR-8 ovarian): > 10 µM
TGI (PC-3 prostate): > 10 µM
TGI (RPMI-8226 leukemia): > 10 µM
TGI (RXF 393 renal): 6.73 µM
TGI (SF-268 CNS): > 10 µM
TGI (SF-295 CNS): > 10 µM
TGI (SK-MEL-28 melanoma): > 10 µM
TGI (SK-MEL-5 melanoma): > 10 µM
TGI (SK-OV-3 ovarian): > 10 µM
TGI (SN12C renal): > 10 µM
TGI (SNB-75 CNS): > 10 µM
TGI (SR leukemia): > 10 µM
TGI (SW-620 colon): > 10 µM
TGI (T-47D breast): > 10 µM
TGI (TK-10 renal): > 10 µM
TGI (UACC-257 melanoma): > 10 µM
TGI (UACC-62 melanoma): > 10 µM

From PubChem BioAssay (NCI)
